Measured values as given in ChEMBL document CHEMBL5143559, “Discovery of highly potent SARS-CoV-2 Mpro inhibitors based on benzoisothiazolone scaffold” (Bioorg Med Chem Lett, 2022).
The source made the active and inactive calls. The rule behind the calls is not given here.

Columns and labels:
[1] = target: T1, Replicase polyprotein 1ab (Severe acute respiratory syndrome coronavirus 2, UniProt P0DTD1); test: Inhibition of SARS-CoV-2 main protease using Mca-AVLQSGFRK(Dnp)K as substrate preincubated with enzyme for 10 mins followed by substrate addition and measured every 30 secs for 10 mins by fluorescence based analysis
[2] = target: Replicase polyprotein 1ab (Severe acute respiratory syndrome coronavirus 2) (UniProt P0DTD1); test: Inhibition of SARS-CoV-2 main protease using Mca-AVLQSGFRK(Dnp)K as substrate at 40 uM preincubated with enzyme for 10 mins followed by substrate addition and measured every 30 secs for 10 mins by fluorescence based analysis; conditions: time 20.0 min
[3] = target: T1, Replicase polyprotein 1ab; test: Inhibition of SARS-CoV-2 RdRp
[4] = target: Replicase polyprotein 1ab (Severe acute respiratory syndrome coronavirus 2) (UniProt P0DTD1); test: Irreversible inhibition of SARS-CoV-2 main protease by fast dilution experiment based analysis

Row | SMILES | IC50 [1] [nM] | inhibition [2] [%] | IC50 [3] [nM] | inhibition [4]
1 | O=C(Cn1sc2cc(C(F)(F)F)ccc2c1=O)Nc1ccccc1 | 524 | 100 | – | –
2 | O=C(Nc1ccccc1)n1sc2cc(F)ccc2c1=O | 680 | 102 | 15300 | –
3 | CC(C)(C)c1ccc(NC(=O)Cn2sc3cc(F)ccc3c2=O)cc1 | 310 | 99.9 | – | –
4 | O=C(Cn1sc2cc(F)ccc2c1=O)Nc1cc(Cl)cc(Cl)c1 | 190 | 108 | – | –
5 | O=C(Cn1sc2cc(F)ccc2c1=O)Nc1ccccc1C(F)(F)F | 335 | 105 | – | –
6 | O=C(Cn1sc2cc(F)ccc2c1=O)Nc1ccccc1Cl | 190 | 94 | – | –
7 | COc1cccc(NC(=O)Cn2sc3cc(F)ccc3c2=O)c1 | 150 | 101 | – | –
8 | CC(C)(C)OC(=O)Cn1sc2cc(F)ccc2c1=O | 220 | 104 | – | –
9 | Nc1cccc2sn(CC(=O)Nc3ccccc3)c(=O)c12 | 1770 | 99.4 | – | –
10 | O=C(O)Cn1sc2cc(F)ccc2c1=O | 1570 | 98.4 | – | –
11 | COc1ccccc1NC(=O)Cn1sc2cc(F)ccc2c1=O | 180 | 99.2 | – | –
12 | O=C(CN1C(=O)c2ccc(F)cc2S1(=O)=O)Nc1ccccc1 | – | 18.3 | – | –
13 | O=C(Cn1sc2cc(F)ccc2c1=O)Nc1ccc(C(F)(F)F)cc1 | 210 | 100 | – | –
14 | COc1cccc2c(=O)n(CC(=O)Nc3ccccc3)sc12 | – | -6.8 | – | –
15 | Nc1cccc2c(=O)n(CC(=O)Nc3ccccc3)sc12 | 11000 | 58.8 | – | –
16 | CCNC(=O)Cn1sc2cc(F)ccc2c1=O | 380 | 102 | – | –
17 | O=C(Cn1sc2cc(F)ccc2c1=O)Nc1ccccc1 | 190 | 102 | 6400 | –
18 | O=c1c2ccc(F)cc2sn1CCCc1ccccc1 | 540 | 102 | – | –
19 | O=C(Cn1oc2cc(F)ccc2c1=O)Nc1ccccc1 | – | 7 | – | –
20 | COc1ccc2sn(CC(=O)Nc3ccccc3)c(=O)c2c1 | 153 | 99.7 | – | –
21 | O=C(Cn1sc2c(C(F)(F)F)cccc2c1=O)Nc1ccccc1 | – | -7.6 | – | –
22 | O=C(Cn1sc2cccc(F)c2c1=O)Nc1ccccc1 | 117 | 99.5 | – | Active

Row | SMILES | IC50 [1] [nM] | inhibition [2] [%] | IC50 [3] [nM] | inhibition [4]
23 | O=C(Cn1sc2cc(F)ccc2c1=O)NC1CCCCC1 | 160 | 97.7 | 7900 | –
24 | Nc1ccc2c(=O)n(CC(=O)Nc3ccccc3)sc2c1 | 443 | 99.7 | – | –
25 | O=C(Cn1sc2c(F)cccc2c1=O)Nc1ccccc1 | 328 | 99.5 | – | –
26 | O=C(Cn1[nH]c2cc(F)ccc2c1=O)Nc1ccccc1 | – | 26.3 | – | –
27 | COc1cc(NC(=O)Cn2sc3cc(F)ccc3c2=O)cc(OC)c1 | 120 | 96.7 | – | –
28 | O=C(Cn1sc2cc(F)ccc2c1=O)Nc1cccc(C(F)(F)F)c1 | 250 | 98.9 | – | –
29 | O=C(Cn1sc2cc(F)ccc2c1=O)NCCc1ccccc1 | 388 | 100 | – | –
30 | O=C(Cn1sc2cc(F)ccc2c1=O)NC1CCCC1 | 400 | 95.5 | – | –
31 | O=C(Cn1c(=O)c2ccc(F)cc2[s+]1[O-])Nc1ccccc1 (stereo unspecified) | – | 23.5 | – | –
32 | O=C(Cn1sc2cc(F)ccc2c1=O)Nc1cccc(Cl)c1 | 140 | 95.5 | – | –
33 | Nc1ccc2sn(CC(=O)Nc3ccccc3)c(=O)c2c1 | 416 | 99.8 | – | –
34 | O=c1[nH]sc2cc(F)ccc12 | 2290 | 106 | – | –
35 | CC(=O)NCn1sc2cc(F)ccc2c1=O | 253 | 102 | – | –
36 | COc1ccc(NC(=O)Cn2sc3cc(F)ccc3c2=O)cc1 | 300 | 99.3 | – | –
37 | O=C(Cn1sc2cc(F)ccc2c1=O)Nc1ccc(Cl)cc1 | 150 | 95.7 | – | –
38 | COc1cccc2sn(CC(=O)Nc3ccccc3)c(=O)c12 | 334 | 99.6 | – | –
39 | O=C(Cn1sc2cccc(C(F)(F)F)c2c1=O)Nc1ccccc1 | 224 | 99.7 | – | –
40 | O=C(Cn1sc2ccccc2c1=O)Nc1ccccc1 | 165 | 99.7 | – | –
41 | O=C(Cn1sc2ccc(F)cc2c1=O)Nc1ccccc1 | 287 | 99.7 | – | –
42 | O=C(Cn1sc2ccc(C(F)(F)F)cc2c1=O)Nc1ccccc1 | 393 | 99.7 | – | –
43 | COc1ccc2c(=O)n(CC(=O)Nc3ccccc3)sc2c1 | 287 | 99.7 | – | –
44 | O=C(Cn1sc2cc(F)ccc2c1=O)NCc1ccccc1 | 230 | 104 | – | –
